From US8445523B2, “Dioxo-imidazolidine derivatives, which inhibit the enzyme SOAT-1, and pharmaceutical and cosmetic compositions containing them” (Galderma Research & Development, priority 2009, dated 2013)

These molecules were tested against T1, enzyme ACAT-1 (Homo sapiens, UniProt P35610) (assay: HepG2 NBD-cholesterol fluorescence test of inhibitory activity towards ACAT-1 (SOAT-1)). Settings: HepG2 cells, NBD-cholesterol 1 μg/ml, incubation 6 hours at 37° C., fluorescence read (490/540 nm).
T1 construct: endogenous in cells; host or cells: HepG2
T1 sequence (P35610 1-550): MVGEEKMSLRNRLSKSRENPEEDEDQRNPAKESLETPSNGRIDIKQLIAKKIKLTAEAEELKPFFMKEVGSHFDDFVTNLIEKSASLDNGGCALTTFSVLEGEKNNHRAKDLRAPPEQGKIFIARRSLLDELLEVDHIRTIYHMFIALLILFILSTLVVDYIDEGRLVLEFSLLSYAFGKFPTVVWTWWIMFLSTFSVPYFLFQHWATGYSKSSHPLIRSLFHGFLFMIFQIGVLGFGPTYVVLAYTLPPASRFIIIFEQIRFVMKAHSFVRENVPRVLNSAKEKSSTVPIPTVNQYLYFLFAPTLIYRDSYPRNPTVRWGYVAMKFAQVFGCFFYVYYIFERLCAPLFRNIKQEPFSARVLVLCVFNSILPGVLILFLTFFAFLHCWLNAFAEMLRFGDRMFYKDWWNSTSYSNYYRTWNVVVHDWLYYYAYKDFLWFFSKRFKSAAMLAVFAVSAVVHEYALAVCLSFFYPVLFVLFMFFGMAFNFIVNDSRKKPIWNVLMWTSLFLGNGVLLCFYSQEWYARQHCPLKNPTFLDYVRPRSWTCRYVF
Format: cell-based
Experimental: The compounds (I) according to the invention, and also the pharmaceutically acceptable salts, solvates and/or hydrates thereof, have inhibitory properties on the enzyme SOAT-1. This inhibitory activity on the enzyme SOAT-1 is measured according to a HepG2 primary enzymatic test, as described in Example 11.
The compounds of formula (I) according to the invention were subjected to a test for evaluating their inhibitory activity towards the enzyme ACAT-1, inspired by the following publication: “Identification of ACAT1- and ACAT2-specific inhibitors using a novel, cell based fluorescence assay: individual ACAT uniqueness”, J. Lipid. Res. (2004) vol. 45, pages 378-386.
The principle of this test is based on the use of NBD-cholesterol, a cholesterol analogue whose fluorescence depends on its environment. When this molecule is in a polar environment, it is weakly fluorescent, whereas in a non-polar environment, it is strongly fluorescent. Free NBD-cholesterol becomes inserted in cell membranes and is weakly fluorescent in this polar environment. When NBD-cholesterol is esterified with ACAT, the NBD-cholesterol ester enters non-polar lipid droplets and is then strongly fluorescent.
The method below is applied: HepG2 cells are incubated in the presence of NBD-cholesterol (1 μg/ml) and of the test compound of formula (I) in black transparent-bottomed 96-well plates, at a rate of 30 000 cells per well. After incubation for 6 hours at 37° C. under 5% CO2, the medium is removed by turning upside-down and the cells are washed with twice 100 μl of PBS. After addition of 50 μl of lysis buffer (10 mM NaPO4, 1% Igepal), the plates are shaken for 5 minutes and the fluorescence is read (excitation at 490 nm, emission at 540 nm) on a Fusion machine (Perkin-Elmer).

Row | IC50 [nM] | Compound
1 | 3 | COc1ccc(N2C(=O)N(CC(=O)Nc3c(C(C)C)cccc3C(C)C)C(=O)C23CCCCC3)cn1 [compound (2)]
2 | 79 | Cc1ccc(N2C(=O)N(CC(=O)Nc3c(C(C)C)cccc3C(C)C)C(=O)C23CCOCC3)cn1 [compound (5)]
3 | 5.5 | Cc1cnc(N2C(=O)N(CC(=O)Nc3c(C(C)C)cccc3C(C)C)C(=O)C23CCCCC3)cn1 [compound (3)]
4 | 0.6 | Cc1ccc(N2C(=O)N(CC(=O)Nc3c(C(C)C)cccc3C(C)C)C(=O)C23CCCCC3)cn1 [compound (4), N-(2,6-Diisopropylphenyl)-2-[1-(6-methyl-pyridin-3-yl)-2,4-dioxo-1,3-diazaspiro[4.5]dec-3-yl]-acetamide]
5 | 9 | CC(C)c1cccc(C(C)C)c1NC(=O)CN1C(=O)N(c2cccnc2)C2(CCCCC2)C1=O [compound (1)]
